The values below are quoted from earlier work in patent US20230133919A1, “COMPOSITIONS AND RELATED METHODS FOR REDUCING VAPOR EFFECT OF VOLATILE HERBICIDES” (BOARD OF TRUSTEES OF MICHIGAN STATE UNIVERSITY, priority 2020, published 2023).

The conditions of this data set: approximate.
Regarding `CCCCOCCOC(=O)COc1ccc(Cl)cc1Cl` [2,4-D (butoxyethyl ester)], the vapor pressure is listed as ~3.2×10^−4 Pa. With `CC(C)OC(=O)COc1ccc(Cl)cc1Cl` [2,4-D (isopropyl ester)], the vapor pressure is recorded as ~1.9×10^1 Pa.

As for `CCCCC(CC)COC(=O)COc1ccc(Cl)cc1Cl` (stereo not shown) [2,4-D (2-ethylhexyl ester)], the vapor pressure is ~4.8×10^−4 Pa. On to `CNC.O=C(O)COc1ccc(Cl)cc1Cl` [2,4-D (dimethylamine salt)], for which the vapor pressure was ~1.3×10^−5 Pa.
